{
  "source": "paper PMC12136037",
  "about": "“Type II kinase inhibitors that target Parkinson’s disease–associated LRRK2” (Science Advances, 2025)",
  "assay_in_all_cases": "33PanQinase kinome-wide selectivity profile (Reaction Biology)",
  "format_in_all_cases": "biochemical",
  "key": {"350 wild-type kinases [1]": {"target": "T1, 350 wild-type kinases (Homo sapiens, UniProt P10398, Y301D/Y302D)", "T1 construct": "purchased Reaction Biology (assay service)", "T1 sequence (P10398 whole entry Y301D/Y302D)": "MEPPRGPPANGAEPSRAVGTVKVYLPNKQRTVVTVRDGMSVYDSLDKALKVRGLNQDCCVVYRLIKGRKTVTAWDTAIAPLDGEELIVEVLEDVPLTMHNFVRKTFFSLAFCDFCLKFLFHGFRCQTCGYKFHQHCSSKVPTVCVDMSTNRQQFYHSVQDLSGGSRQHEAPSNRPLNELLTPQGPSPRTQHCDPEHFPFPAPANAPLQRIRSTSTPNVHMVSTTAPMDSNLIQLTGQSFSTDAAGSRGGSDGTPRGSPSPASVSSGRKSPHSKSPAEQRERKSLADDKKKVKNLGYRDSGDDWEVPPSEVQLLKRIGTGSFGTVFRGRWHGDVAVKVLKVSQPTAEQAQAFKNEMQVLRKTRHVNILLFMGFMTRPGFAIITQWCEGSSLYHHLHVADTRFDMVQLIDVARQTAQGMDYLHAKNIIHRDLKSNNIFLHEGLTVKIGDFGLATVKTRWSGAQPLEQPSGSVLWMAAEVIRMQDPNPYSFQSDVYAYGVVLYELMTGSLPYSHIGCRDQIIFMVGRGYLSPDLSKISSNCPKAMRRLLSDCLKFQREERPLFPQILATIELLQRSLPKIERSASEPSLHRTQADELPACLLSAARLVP", "conditions": "kinase ARAF YDYD (constitutively active variant), ATP 1 µM, singlicate", "description": "(§1) Compound RN341 was tested at two concentrations of 1 and 10 μM against a panel of 350 wild-type kinases in the ^33PanQinase assay. The assay was performed by Reaction Biology (www.reactionbiology.com/services/kinase-assays/kinase-panel-screening/)."}, "350 wild-type kinases [2]": {"target": "T2, 350 wild-type kinases (Homo sapiens, UniProt Q9Y243)", "T2 construct": "purchased Reaction Biology (assay service)", "conditions": "kinase AKT3, ATP 3 µM, singlicate", "description": "as §1"}, "350 wild-type kinases [3]": {"target": "T3, 350 wild-type kinases (Homo sapiens, UniProt P49760)", "T3 construct": "purchased Reaction Biology (assay service)", "T3 sequence (P49760 whole entry)": "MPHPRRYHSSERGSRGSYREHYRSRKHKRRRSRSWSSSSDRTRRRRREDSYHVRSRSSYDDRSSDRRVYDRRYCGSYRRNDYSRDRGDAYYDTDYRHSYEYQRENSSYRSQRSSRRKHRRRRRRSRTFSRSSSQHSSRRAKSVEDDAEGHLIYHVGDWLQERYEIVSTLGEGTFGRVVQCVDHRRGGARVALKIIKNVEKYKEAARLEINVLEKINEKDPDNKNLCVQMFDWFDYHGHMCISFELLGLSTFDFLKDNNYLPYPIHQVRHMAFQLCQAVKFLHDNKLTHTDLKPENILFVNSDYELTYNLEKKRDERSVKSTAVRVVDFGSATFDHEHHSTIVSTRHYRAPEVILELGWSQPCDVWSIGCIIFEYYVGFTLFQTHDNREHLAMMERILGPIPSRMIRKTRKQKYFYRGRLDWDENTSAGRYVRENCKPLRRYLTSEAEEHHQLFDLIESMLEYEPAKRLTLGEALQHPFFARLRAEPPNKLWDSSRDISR", "conditions": "kinase CLK2, ATP 0,3 µM, singlicate", "description": "as §1"}, "350 wild-type kinases [4]": {"target": "T4, 350 wild-type kinases (Homo sapiens, UniProt P06493)", "T4 construct": "purchased Reaction Biology (assay service)", "T4 sequence (P06493 whole entry)": "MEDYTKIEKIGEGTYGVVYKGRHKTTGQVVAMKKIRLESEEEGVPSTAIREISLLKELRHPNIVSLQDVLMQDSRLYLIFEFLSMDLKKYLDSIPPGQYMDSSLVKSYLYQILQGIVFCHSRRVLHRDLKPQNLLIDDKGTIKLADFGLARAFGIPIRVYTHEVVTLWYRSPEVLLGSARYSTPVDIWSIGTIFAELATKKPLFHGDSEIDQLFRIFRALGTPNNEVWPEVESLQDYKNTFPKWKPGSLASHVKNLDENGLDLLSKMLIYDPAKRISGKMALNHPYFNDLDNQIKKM", "conditions": "singlicate; for Residual activity (% of control), CDK1/CycA2: kinase CDK1/CycA2, ATP 0,3 µM; for Residual activity (% of control), CDK1/CycB1: kinase CDK1/CycB1; for Residual activity (% of control), CDK1/CycB1 / Residual activity (% of control), CDK1/CycE1: ATP 1 µM; for Residual activity (% of control), CDK1/CycE1: kinase CDK1/CycE1", "description": "as §1"}, "350 wild-type kinases [5]": {"target": "T5, 350 wild-type kinases (Homo sapiens, UniProt Q9HAZ1)", "T5 construct": "purchased Reaction Biology (assay service)", "conditions": "kinase CLK4, ATP 0,1 µM, singlicate", "description": "as §1"}, "350 wild-type kinases [6]": {"target": "T6, 350 wild-type kinases (Homo sapiens, UniProt Q96GD4)", "T6 construct": "purchased Reaction Biology (assay service)", "T6 sequence (Q96GD4 whole entry)": "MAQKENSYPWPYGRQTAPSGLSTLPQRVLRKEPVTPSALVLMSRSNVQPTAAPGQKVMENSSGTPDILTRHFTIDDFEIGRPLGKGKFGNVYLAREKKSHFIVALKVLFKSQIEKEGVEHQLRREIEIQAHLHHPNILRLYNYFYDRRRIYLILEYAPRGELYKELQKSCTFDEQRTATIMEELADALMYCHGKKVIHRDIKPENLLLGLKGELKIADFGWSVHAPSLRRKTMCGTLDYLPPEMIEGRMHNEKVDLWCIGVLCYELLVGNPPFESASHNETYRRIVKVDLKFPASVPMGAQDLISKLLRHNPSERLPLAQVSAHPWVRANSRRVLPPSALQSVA", "conditions": "kinase AuroraB, ATP 10 µM, singlicate", "description": "as §1"}, "350 wild-type kinases [7]": {"target": "T7, 350 wild-type kinases (Homo sapiens, UniProt Q5S007)", "T7 construct": "purchased Reaction Biology (assay service)", "conditions": "1 and 10 μM; authors think kinase was inactive in panel", "description": "as §1"}, "350 wild-type kinases [8]": {"target": "T8, 350 wild-type kinases (Homo sapiens, UniProt Q13554)", "T8 construct": "purchased Reaction Biology (assay service)", "T8 sequence (Q13554 whole entry)": "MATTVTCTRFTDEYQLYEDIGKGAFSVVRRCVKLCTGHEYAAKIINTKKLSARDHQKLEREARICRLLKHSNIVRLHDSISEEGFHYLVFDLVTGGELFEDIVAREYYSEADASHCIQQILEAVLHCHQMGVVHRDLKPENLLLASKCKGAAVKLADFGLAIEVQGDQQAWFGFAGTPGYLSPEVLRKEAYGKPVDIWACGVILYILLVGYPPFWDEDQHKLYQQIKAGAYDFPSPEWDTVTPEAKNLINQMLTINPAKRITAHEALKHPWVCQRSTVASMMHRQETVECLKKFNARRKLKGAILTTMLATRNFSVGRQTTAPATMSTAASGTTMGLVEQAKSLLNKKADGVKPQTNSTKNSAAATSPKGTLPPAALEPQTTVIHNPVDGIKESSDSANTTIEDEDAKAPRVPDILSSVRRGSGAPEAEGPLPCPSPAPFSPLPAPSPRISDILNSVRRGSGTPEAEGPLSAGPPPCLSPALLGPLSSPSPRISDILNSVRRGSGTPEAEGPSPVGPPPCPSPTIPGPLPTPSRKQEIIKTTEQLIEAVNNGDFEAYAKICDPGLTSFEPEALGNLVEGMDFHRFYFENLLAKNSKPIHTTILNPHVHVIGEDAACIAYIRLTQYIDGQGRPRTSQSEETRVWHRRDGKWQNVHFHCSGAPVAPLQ", "conditions": "kinase CAMK2B, ATP 3 µM, singlicate", "description": "as §1"}, "350 wild-type kinases [9]": {"target": "T9, 350 wild-type kinases (Homo sapiens, UniProt Q13131)", "T9 construct": "purchased Reaction Biology (assay service)", "T9 sequence (Q13131 whole entry)": "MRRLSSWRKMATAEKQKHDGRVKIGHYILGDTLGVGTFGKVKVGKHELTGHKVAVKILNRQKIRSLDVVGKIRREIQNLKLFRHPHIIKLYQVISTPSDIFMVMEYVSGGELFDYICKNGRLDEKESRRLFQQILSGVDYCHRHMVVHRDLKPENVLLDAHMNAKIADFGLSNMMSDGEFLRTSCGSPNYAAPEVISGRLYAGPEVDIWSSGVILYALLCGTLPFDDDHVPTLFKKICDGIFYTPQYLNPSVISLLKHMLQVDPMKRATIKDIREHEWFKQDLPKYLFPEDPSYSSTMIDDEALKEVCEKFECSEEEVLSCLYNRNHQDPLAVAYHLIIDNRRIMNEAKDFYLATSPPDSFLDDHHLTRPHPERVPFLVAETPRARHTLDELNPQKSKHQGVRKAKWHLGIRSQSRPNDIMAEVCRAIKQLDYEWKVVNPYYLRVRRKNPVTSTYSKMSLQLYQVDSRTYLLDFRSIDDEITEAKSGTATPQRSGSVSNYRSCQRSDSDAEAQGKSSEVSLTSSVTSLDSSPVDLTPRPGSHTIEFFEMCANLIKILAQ", "conditions": "kinase AMPKalpha1, ATP 3 µM, singlicate", "description": "as §1"}, "350 wild-type kinases [10]": {"target": "T10, 350 wild-type kinases (Homo sapiens, UniProt P49761)", "T10 construct": "purchased Reaction Biology (assay service)", "T10 sequence (P49761 whole entry)": "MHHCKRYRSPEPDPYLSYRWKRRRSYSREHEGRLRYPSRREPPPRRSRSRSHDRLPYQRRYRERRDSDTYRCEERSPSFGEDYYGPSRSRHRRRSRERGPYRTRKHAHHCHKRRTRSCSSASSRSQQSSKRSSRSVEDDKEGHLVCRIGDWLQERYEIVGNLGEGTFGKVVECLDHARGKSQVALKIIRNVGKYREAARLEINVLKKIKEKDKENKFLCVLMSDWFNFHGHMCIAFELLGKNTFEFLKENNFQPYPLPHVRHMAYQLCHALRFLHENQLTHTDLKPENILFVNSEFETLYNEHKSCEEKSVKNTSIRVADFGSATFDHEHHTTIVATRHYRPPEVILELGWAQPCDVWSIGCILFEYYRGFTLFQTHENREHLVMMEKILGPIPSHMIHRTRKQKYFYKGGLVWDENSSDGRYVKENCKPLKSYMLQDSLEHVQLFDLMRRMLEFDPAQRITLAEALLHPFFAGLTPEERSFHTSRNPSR", "conditions": "kinase CLK3, ATP 0,3 µM, singlicate", "description": "as §1"}, "350 wild-type kinases [11]": {"target": "T11, 350 wild-type kinases (Homo sapiens, UniProt O14965)", "T11 construct": "purchased Reaction Biology (assay service)", "conditions": "kinase AuroraA, ATP 10 µM, singlicate", "description": "as §1"}, "350 wild-type kinases [12]": {"target": "T12, 350 wild-type kinases (Homo sapiens, UniProt Q16832)", "T12 construct": "purchased Reaction Biology (assay service)", "T12 sequence (Q16832 22-855)": "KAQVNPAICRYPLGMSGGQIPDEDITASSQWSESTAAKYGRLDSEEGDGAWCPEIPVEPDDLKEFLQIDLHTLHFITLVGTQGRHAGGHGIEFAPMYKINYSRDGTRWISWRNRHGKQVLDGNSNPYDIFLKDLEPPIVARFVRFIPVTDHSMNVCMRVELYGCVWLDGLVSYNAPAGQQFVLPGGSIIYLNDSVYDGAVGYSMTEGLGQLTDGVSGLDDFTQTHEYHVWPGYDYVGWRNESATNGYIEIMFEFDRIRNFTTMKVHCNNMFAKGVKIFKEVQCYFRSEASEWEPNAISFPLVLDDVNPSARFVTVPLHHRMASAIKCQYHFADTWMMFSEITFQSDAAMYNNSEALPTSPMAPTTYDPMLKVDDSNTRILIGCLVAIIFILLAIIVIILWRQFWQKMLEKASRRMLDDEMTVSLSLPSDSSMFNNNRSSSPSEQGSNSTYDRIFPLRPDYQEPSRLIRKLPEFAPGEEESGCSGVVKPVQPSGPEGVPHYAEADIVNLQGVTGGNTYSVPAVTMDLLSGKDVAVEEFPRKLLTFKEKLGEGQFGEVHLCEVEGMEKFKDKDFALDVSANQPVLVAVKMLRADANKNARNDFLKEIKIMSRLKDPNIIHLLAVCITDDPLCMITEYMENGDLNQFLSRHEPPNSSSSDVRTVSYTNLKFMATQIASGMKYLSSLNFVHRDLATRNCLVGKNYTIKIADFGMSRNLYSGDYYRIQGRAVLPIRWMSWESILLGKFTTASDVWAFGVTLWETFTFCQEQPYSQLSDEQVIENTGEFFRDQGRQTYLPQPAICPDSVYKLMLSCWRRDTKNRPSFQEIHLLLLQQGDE", "conditions": "kinase DDR2, ATP 0,1 µM, singlicate", "description": "as §1"}, "350 wild-type kinases [13]": {"target": "T13, 350 wild-type kinases (Homo sapiens, UniProt Q96Q40)", "T13 construct": "purchased Reaction Biology (assay service)", "T13 sequence (Q96Q40 whole entry)": "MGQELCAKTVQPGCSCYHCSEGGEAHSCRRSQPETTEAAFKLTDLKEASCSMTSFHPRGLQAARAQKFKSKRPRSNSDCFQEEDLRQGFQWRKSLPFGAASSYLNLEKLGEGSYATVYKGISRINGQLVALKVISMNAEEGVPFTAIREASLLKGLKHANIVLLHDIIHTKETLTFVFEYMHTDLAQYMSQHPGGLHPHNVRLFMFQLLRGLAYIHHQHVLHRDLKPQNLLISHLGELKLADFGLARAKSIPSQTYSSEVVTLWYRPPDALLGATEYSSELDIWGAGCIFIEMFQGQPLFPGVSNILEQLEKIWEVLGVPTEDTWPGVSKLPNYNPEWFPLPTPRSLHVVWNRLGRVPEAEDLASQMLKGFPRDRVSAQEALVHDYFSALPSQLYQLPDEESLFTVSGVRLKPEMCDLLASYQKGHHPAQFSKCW", "conditions": "singlicate; for Residual activity (% of control), CDK15/CycA2: kinase CDK15/CycA2, ATP 1 µM; for Residual activity (% of control), CDK15/CycB1: kinase CDK15/CycB1, ATP 0,3 µM", "description": "as §1"}, "350 wild-type kinases [14]": {"target": "T14, 350 wild-type kinases (Homo sapiens, UniProt P41279)", "T14 construct": "purchased Reaction Biology (assay service)", "conditions": "kinase COT, ATP 0,3 µM, singlicate", "description": "as §1"}, "350 wild-type kinases [15]": {"system": "350 wild-type kinases", "conditions": "10 μM, 350 kinases", "description": "as §1"}, "350 wild-type kinases [16]": {"target": "T15, 350 wild-type kinases (Homo sapiens, UniProt P78368)", "T15 construct": "purchased Reaction Biology (assay service)", "conditions": "kinase CK1gamma2, ATP 0,1 µM, singlicate", "description": "as §1"}},
  "data": [
    {"molecule": "CCSc1nc(NC)c2c(-c3cccc(NC(=O)Nc4cc(C(C)(C)C)nn4-c4ccc(C)cc4)c3)c[nH]c2n1", "note": "[Compound 32]", "values": [
      {"measurement": "Residual activity (% of control), ARAF YDYD", "setting": "350 wild-type kinases [1]; Assay Conc. 1.0E-05 M", "result": "89 % of control"},
      {"measurement": "Residual activity (% of control), ARAF YDYD", "setting": "350 wild-type kinases [1]; Assay Conc. 1.0E-06 M", "result": "116 % of control"},
      {"measurement": "Residual activity (% of control), AKT3", "setting": "350 wild-type kinases [2]; Assay Conc. 1.0E-05 M", "result": "113 % of control"},
      {"measurement": "Residual activity (% of control), AKT3", "setting": "350 wild-type kinases [2]; Assay Conc. 1.0E-06 M", "result": "115 % of control"},
      {"measurement": "Residual activity (% of control), CLK2", "setting": "350 wild-type kinases [3]; Assay Conc. 1.0E-05 M", "result": "86 % of control"},
      {"measurement": "Residual activity (% of control), CLK2", "setting": "350 wild-type kinases [3]; Assay Conc. 1.0E-06 M", "result": "109 % of control"},
      {"measurement": "Residual activity (% of control), CDK1/CycA2", "setting": "350 wild-type kinases [4]; Assay Conc. 1.0E-05 M", "result": "62 % of control"},
      {"measurement": "Residual activity (% of control), CDK1/CycA2", "setting": "350 wild-type kinases [4]; Assay Conc. 1.0E-06 M", "result": "110 % of control"},
      {"measurement": "Residual activity (% of control), CDK1/CycB1", "setting": "350 wild-type kinases [4]; Assay Conc. 1.0E-05 M", "result": "82 % of control"},
      {"measurement": "Residual activity (% of control), CDK1/CycB1", "setting": "350 wild-type kinases [4]; Assay Conc. 1.0E-06 M", "result": "105 % of control"},
      {"measurement": "Residual activity (% of control), CDK1/CycE1", "setting": "350 wild-type kinases [4]; Assay Conc. 1.0E-05 M", "result": "51 % of control"},
      {"measurement": "Residual activity (% of control), CDK1/CycE1", "setting": "350 wild-type kinases [4]; Assay Conc. 1.0E-06 M", "result": "104 % of control"},
      {"measurement": "Residual activity (% of control), CLK4", "setting": "350 wild-type kinases [5]; Assay Conc. 1.0E-05 M", "result": "43 % of control"},
      {"measurement": "Residual activity (% of control), CLK4", "setting": "350 wild-type kinases [5]; Assay Conc. 1.0E-06 M", "result": "80 % of control"},
      {"measurement": "Residual activity (% of control), AuroraB", "setting": "350 wild-type kinases [6]; Assay Conc. 1.0E-05 M", "result": "74 % of control"},
      {"measurement": "Residual activity (% of control), AuroraB", "setting": "350 wild-type kinases [6]; Assay Conc. 1.0E-06 M", "result": "107 % of control"},
      {"measurement": "LRRK2 inhibition in the 33PanQinase screen", "setting": "350 wild-type kinases [7]", "result": "not detected as a LRRK2 inhibitor"},
      {"measurement": "Residual activity (% of control), CAMK2B", "setting": "350 wild-type kinases [8]; Assay Conc. 1.0E-05 M", "result": "83 % of control"},
      {"measurement": "Residual activity (% of control), CAMK2B", "setting": "350 wild-type kinases [8]; Assay Conc. 1.0E-06 M", "result": "116 % of control"},
      {"measurement": "Residual activity (% of control), AMPKalpha1", "setting": "350 wild-type kinases [9]; Assay Conc. 1.0E-05 M", "result": "85 % of control"},
      {"measurement": "Residual activity (% of control), AMPKalpha1", "setting": "350 wild-type kinases [9]; Assay Conc. 1.0E-06 M", "result": "95 % of control"},
      {"measurement": "Residual activity (% of control), CLK3", "setting": "350 wild-type kinases [10]; Assay Conc. 1.0E-05 M", "result": "66 % of control"},
      {"measurement": "Residual activity (% of control), CLK3", "setting": "350 wild-type kinases [10]; Assay Conc. 1.0E-06 M", "result": "90 % of control"},
      {"measurement": "Residual activity (% of control), AuroraA", "setting": "350 wild-type kinases [11]; Assay Conc. 1.0E-05 M", "result": "74 % of control"},
      {"measurement": "Residual activity (% of control), AuroraA", "setting": "350 wild-type kinases [11]; Assay Conc. 1.0E-06 M", "result": "96 % of control"},
      {"measurement": "Residual activity (% of control), DDR2", "setting": "350 wild-type kinases [12]; Assay Conc. 1.0E-05 M", "result": "20 % of control"},
      {"measurement": "Residual activity (% of control), DDR2", "setting": "350 wild-type kinases [12]; Assay Conc. 1.0E-06 M", "result": "79 % of control"},
      {"measurement": "Residual activity (% of control), CDK15/CycA2", "setting": "350 wild-type kinases [13]; Assay Conc. 1.0E-05 M", "result": "92 % of control"},
      {"measurement": "Residual activity (% of control), CDK15/CycA2", "setting": "350 wild-type kinases [13]; Assay Conc. 1.0E-06 M", "result": "116 % of control"},
      {"measurement": "Residual activity (% of control), CDK15/CycB1", "setting": "350 wild-type kinases [13]; Assay Conc. 1.0E-05 M", "result": "86 % of control"},
      {"measurement": "Residual activity (% of control), CDK15/CycB1", "setting": "350 wild-type kinases [13]; Assay Conc. 1.0E-06 M", "result": "98 % of control"},
      {"measurement": "Residual activity (% of control), COT", "setting": "350 wild-type kinases [14]; Assay Conc. 1.0E-05 M", "result": "69 % of control"},
      {"measurement": "Residual activity (% of control), COT", "setting": "350 wild-type kinases [14]; Assay Conc. 1.0E-06 M", "result": "96 % of control"},
      {"measurement": "number of kinases inhibited with less than 30% residual activity", "setting": "350 wild-type kinases [15]", "result": 10},
      {"measurement": "Residual activity (% of control), CK1gamma2", "setting": "350 wild-type kinases [16]; Assay Conc. 1.0E-05 M", "result": "88 % of control"},
      {"measurement": "Residual activity (% of control), CK1gamma2", "setting": "350 wild-type kinases [16]; Assay Conc. 1.0E-06 M", "result": "102 % of control"}
    ]}
  ]
}
